Test results reported in patent US20120255051A1, “HERBICIDE TOLERANT PLANTS” (priority 2009, published 2012).

Tested on: Brassica plants comprising mutant AHAS alleles
Test: Greenhouse post-emergence spray test (5 g a.i./ha): survival and plant type rating
Type: in vivo, Brassica napus
Set-up: key to number of surviving plants in plant type 4 / number of surviving plants in plant type 5 / number of surviving plants in plant type 2: 5: normal (corresponding to wildtype unsprayed phenotype); 4: normal height, some side branching, normal leaves; 3: intermediate height, intermediate side branching, normal leaves; 2: short, severe side branching (“bushy”), some leave malformations; 1: short, severe side branching (“bushy”), severe leave malformations
Conditions: 5 g a.i./ha post-emergence
Description: The correlation between the presence of missense and/or full knockout AHAS alleles in a Brassica plant grown in the greenhouse and tolerance to thiencarbazone-methyl was determined as follows. Of the Brassica plants identified in Example 1 and 2, crosses were made to obtain plants comprising both mutant AHAS1 and AHAS3 alleles (F1), which were subsequently backcrossed and selfed (BC1S1). Single gene AHAS missense mutants were backcrossed twice (BC2). These BC1S1 (representing all possible genotype combinations), as well as BC2 single AHAS gene mutant plants (50%+/+, 50%+/−), were sown in a greenhouse. Treatment post-emergence at the 1-2 leaf stage was carried out with a dose of 5 g a.i./ha of thiencarbazone-methyl and surviving plants were transplanted to 9 cm pots 10 days after spraying. The plants were evaluated for phenotype (height, side branching and leave morphology) 20 days after transplantation on scale of 5 to 1, where; type 5=normal (corresponding to wildtype unsprayed phenotype); type 4=normal height, some side branching, normal leaves; type 3=intermediate height, intermediate side branching, normal leaves; type 2=short, severe side branching (“bushy”), some leave malformations; type 1=short, severe side branching (“bushy”), severe leave malformations (Table 4).

[1] = BC1S1 HETO108/HETO102, 204 sown, 201 germinated
[2] = BC1S1 HETO108/HETO103, 204 sown, 199 germinated
[3] = BC1S1 HETO108/HETO104, 204 sown, 200 germinated
[4] = BC1S1 HETO112/HETO111, 204 sown, 204 germinated
[5] = BC2 HETO108, 51 sown, 50 germinated
[6] = BC2 HETO111, 51 sown, 49 germinated

## COC(=O)c1csc(C)c1S(=O)(=O)NC(=O)n1nc(OC)n(C)c1=O [thiencarbazone-methyl, methyl 4-[(4,5-dihydro-3-methoxy-4-methyl-5-oxo-1H-1,2,4-triazol-1-yl)carbonylsulfamoyl]-5-methylthiophene-3-carboxylate]
[1]
  number of surviving plants in plant type 1: 108
  number of surviving plants in plant type 2: 34
  number of surviving plants in plant type 3: 21
  number of surviving plants in plant type 4: 1
  number of surviving plants in plant type 5: 0
  number of surviving plants transplanted after spraying (trans): 169
[2]
  number of surviving plants in plant type 1: 88
  number of surviving plants in plant type 2: 18
  number of surviving plants in plant type 3: 41
  number of surviving plants in plant type 4: 4
  number of surviving plants in plant type 5: 0
  number of surviving plants transplanted after spraying (trans): 151
[3]
  number of surviving plants in plant type 1: 66
  number of surviving plants in plant type 2: 18
  number of surviving plants in plant type 3: 28
  number of surviving plants in plant type 4: 2
  number of surviving plants transplanted after spraying (trans): 115
BC1S1 HETO108/HETO104, 204 sown, 200 germinated (probably missed during spraying)
  number of surviving plants in plant type 5: 1
[4]
  number of surviving plants in plant type 1: 94
  number of surviving plants in plant type 2: 23
  number of surviving plants in plant type 3: 35
  number of surviving plants in plant type 4: 0
  number of surviving plants in plant type 5: 0
  number of surviving plants transplanted after spraying (trans): 152
[5]
  number of surviving plants in plant type 1: 20
  number of surviving plants in plant type 2: 2
  number of surviving plants in plant type 3: 0
  number of surviving plants in plant type 4: 0
  number of surviving plants in plant type 5: 0
  number of surviving plants transplanted after spraying (trans): 22
[6]
  number of surviving plants in plant type 1: 22
  number of surviving plants in plant type 2: 0
  number of surviving plants in plant type 3: 0
  number of surviving plants in plant type 4: 0
  number of surviving plants in plant type 5: 0
  number of surviving plants transplanted after spraying (trans): 25
wt, 51 sown, 51 germinated
  number of surviving plants in plant type 1: 0
  number of surviving plants in plant type 2: 0
  number of surviving plants in plant type 3: 0
  number of surviving plants in plant type 4: 0
  number of surviving plants in plant type 5: 0
  number of surviving plants transplanted after spraying (trans): 0
